# Source: patent US5145872A, “Peptides with pharmaceutical activity” (Zambon Group, S.p.A., priority 1988, dated 1992)
# “And” between values parts separate entries of the source, which are not always exact repeats. Equal values may be shown once. “Also recorded” adds a separate entry of the source.
# Legend:
# [1] = tested on: methionine-enkephalin-induced analgesia; assay: Potentiation of methionine-enkephalin-induced analgesia (hot plate test), product given i.c.v.; format: in vivo, Male Swiss mice; settings: for Reaction time areas, Product Met-enk: product 0.16 μmoles i.c.v. together with Met-enk i.c.v., hot plate; for Reaction time areas, Product: product alone, 0.16 μmoles i.c.v., hot plate 51.5° C., 3-15 min
# Protocol: (§1) Male Swiss mice (CD Charles River) weighing 22-24 g received intracerebroventricular (i.c.v.) injection of methionineenkephalin as described by Haley and Mc Cormick [Br. J. Pharmacol., 12, 12-15, (1957)].
# (§2) Methionine-enkephalin was dissolved in distilled water and microinjected in a volume of 10 μl/mouse and in a dose analgesic in less than 30% of animals. The dose (10.25 or 50 μg/mouse) was chosen at the beginning of each experience depending on each batch's analgesic activity.
# (§3) The antinociceptive effect was tested by the hot plate test as described by Eddy and Leimbach [(J. Pharmacol. Exptl. Therap., 107, 385-393, (1953)]. The time in seconds from contact with the plate (51.5° C.) to paw licking or Jumping accurrence was recorded as the response latency.
# (§4) Animals were removed as soon as they reacted or after 30 seconds if they at 3, 6, 9, 12 and 15 minutes after the i.c.v. treatment and the latency times measured were used to calculate the reaction time areas. At first the compounds of formula I and Bestatin were administered simultaneously to methionine-enkephalin (dissolved in the same solution) by intracerebroventricular treatment to evaluate their activity without any interference due to absorbtion or diffusion through the blood-brain barrier.
# [2] = tested on: methionine-enkephalin-induced analgesia; assay: Potentiation of methionine-enkephalin-induced analgesia (hot plate test), product given i.v.; format: in vivo, Male Swiss mice; settings: for Reaction time areas, Product: product alone
# Protocol: as §1, §2, §3, §4
# Then the compounds of formula I and Bestatin were tested after intravenous (i.v.) administration to study their diffusion across blood-brain barrier.
# The administration i.v. of the compounds of formula I and of Bestatin was simultaneous to methionine-enkephalin administration i.c.v.
# [3] = product 0.05 mmoles/kg i.v. simultaneous to Met-enk i.c.v.
# [4] = product 0.08 mmoles/kg i.v. simultaneous to Met-enk i.c.v.
Molecule,"Reaction time areas, Product Met-enk [1]","Reaction time areas, Product [1]","Reaction time areas, Met-enk ([1]; Met-enk alone i.c.v., control group of each Table 1 experiment)","Reaction time areas, Met-enk ([2]; Met-enk alone i.c.v., control group of each Table 2 experiment)","Activity of enhancing analgesia induced by opioids when administered by intravenous route ([2]; intravenous route, in words)","Reaction time areas, Product Met-enk [2, 3]","Reaction time areas, Product Met-enk [2, 4]","Reaction time areas, Product ([2]; 0.05 mmoles/kg i.v.)","Reaction time areas, Product ([2]; 0.08 mmoles/kg i.v.)"
"CS(=O)(=O)c1ccc(C[C@@H](N)[C@H](O)C(=O)NC2(C(=O)O)CCC2)cc1 [Compound 4, 1-[(2S,3R)-3-amino-2-hydroxy-4-(4-methylsulfonyl-phenyl)-butanoyl]-amino-1-cyclobutanecarboxylic acid]",290 ± 17.1,179 ± 9.9,,,,,,,
Methionine-enkephalin [Met-enk],,,207 ± 15.6 and 173 ± 11.2 and 188 ± 4.7,199 ± 14.0 and 197 ± 16.7 and 208 ± 8.3 and 200 ± 6.1 and 197 ± 9.7,,,,,
"CC(C)C[C@H](NC(=O)[C@@H](O)[C@H](N)Cc1ccccc1)C(=O)O [Bestatin, [(2S,3R)-3-amino-2-hydroxy-4-phenyl-butanoyl]-L-leucine]",268 ± 11.3,222 ± 13.3,,,practically inactive; also recorded: not active,202 ± 6.9,212 ± 10.0,173 ± 3.7,182 ± 8.3
"CS(=O)(=O)c1ccc(C[C@@H](N)[C@H](O)C(=O)NC2(C(=O)O)CCCC2)cc1 [Compound 2, 1-[(2S,3R)-3-amino-2-hydroxy-4-(4-methylsulfonyl-phenyl)-butanoyl]-amino-1-cyclopentanecarboxylic acid]",,,,,,243 ± 15.9,233 ± 10.1,190 ± 7.8,191 ± 8.5
